In patent publication US11178871B2, “Herbicidal pyrimidine compounds” (BASF SE, priority 2016, dated 2021):

Key:
Assay type in all cases: in vivo
[1] = test system: Alopecurus myosuroides; assay: greenhouse test, pre-emergence treatment, ALOMY; settings: 2000 g/ha
Excerpt: (§1) The culture containers used were plastic flowerpots containing loamy sand with approximately 3.0% of humus as the substrate. The seeds of the test plants were sown separately for each species.
(§2) For the pre-emergence treatment, the active ingredients, which had been suspended or emulsified in water, were applied directly after sowing by means of finely distributing nozzles. The containers were irrigated gently to promote germination and growth and subsequently covered with transparent plastic hoods until the plants had rooted. This cover caused uniform germination of the test plants, unless this had been impaired by the active ingredients.
(§3) Depending on the species, the plants were kept at 10-25° C. or 20-35° C., respectively.
(§4) The test period extended over 2 to 4 weeks. During this time, the plants were tended, and their response to the individual treatments was evaluated.
(§5) Evaluation was carried out using a scale from 0 to 100. 100 means no emergence of the plants, or complete destruction of at least the aerial moieties, and 0 means no damage, or normal course of growth. A good herbicidal activity is given at values of at least 70 and a very good herbicidal activity is given at values of at least 85.
(§6) The plants used in the greenhouse experiments were of the following species: […]

[2] = test system: Echinocloa crus-galli; assay: greenhouse test, post-emergence treatment, ECHCG; settings: post-emergence
Procedure, shortened: (§7)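 Herbicidal effect is rated 0–100, where 100 denotes total destruction of aerial parts and 0 denotes unaffected growth. Treatment occurs once plants reach 3–15 cm in humus-containing loamy sand, with compound applied in water; the trial runs 2–4 weeks at 10–25 °C or 20–35 °C.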

[3] = test system: Apera spica-venti; assay: greenhouse test, post-emergence treatment, APESV; settings: post-emergence, 2000 g/ha
Excerpt: as §1
(§8) For the post-emergence treatment, the test plants were first grown to a height of 3 to 15 cm, depending on the plant habit, and only then treated with the active ingredients which had been suspended or emulsified in water. For this purpose, the test plants were either sown directly and grown in the same containers, or they were first grown separately as seedlings and transplanted into the test containers a few days prior to treatment.
as §3, §4, §5, §6

[4] = test system: Echinocloa crus-galli; assay: greenhouse test, pre-emergence treatment, ECHCG
Procedure, shortened: (§9)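 Herbicidal effect rated on a 0-100 scale, where 0 is normal growth and 100 is no emergence or destroyed aerial parts, 2 to 4 weeks after soil application at sowing.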

[5] = test system: Alopecurus myosuroides; assay: greenhouse test, post-emergence treatment, ALOMY; settings: post-emergence
Procedure, shortened: as §7

[6] = test system: Avena fatua; assay: greenhouse test, post-emergence treatment, AVEFA
Procedure, shortened: as §7

[7] = test system: Apera spica-venti; assay: greenhouse test, pre-emergence treatment, APESV
Procedure, shortened: as §9

[8] = test system: Abutilon theophrasti; assay: greenhouse test, pre-emergence treatment, ABUTH; settings: 2000 g/ha
Excerpt: as §1, §2, §3, §4, §5, §6

[9] = test system: Abutilon theophrasti; assay: greenhouse test, post-emergence treatment, ABUTH; settings: 2000 g/ha
Procedure, shortened: as §7

[10] = test system: Poa annua; assay: greenhouse test, post-emergence treatment, POAAN
Excerpt: as §1, §8, §3, §4, §5, §6

[11] = test system: Poa annua; assay: greenhouse test, pre-emergence treatment, POAAN
Procedure, shortened: as §9

[12] = test system: Lolium multiflorum; assay: greenhouse test, post-emergence treatment, LOLMU
Excerpt: as §1, §8, §3, §4, §5, §6

[13] = test system: Amaranthus retroflexus; assay: greenhouse test, post-emergence treatment, AMARE
Procedure, shortened: as §7

[14] = test system: Setaria viridis; assay: greenhouse test, pre-emergence treatment, SETVI; settings: 2000 g/ha
Excerpt: as §1, §2, §3, §4, §5, §6

[15] = test system: Matricaria inodora; assay: greenhouse test, pre-emergence treatment, MATIN; settings: 2000 g/ha
Excerpt: as §1, §2, §3, §4, §5, §6

[16] = test system: Chenopodium album; assay: greenhouse test, post-emergence treatment, CHEAL; settings: 250 g/ha
Excerpt: as §1, §8, §3, §4, §5, §6

[17] = test system: Agrostis stolonifera; assay: greenhouse test, post-emergence treatment, AGSST
Excerpt: as §1, §8, §3, §4, §5, §6

[18] = test system: Polygonum convolvulus; assay: greenhouse test, post-emergence treatment, POLCO; settings: 500 g/ha
Excerpt: as §1, §8, §3, §4, §5, §6

CC(O)Cc1nc(C2CC2)ncc1-c1ccccc1Cl (stereo not shown) [Ex. 105]
herbicidal activity [1]: very good (a very good herbicidal activity is given at values of at least 85)
herbicidal activity ([2]; 2000 g/ha): very good (a very good herbicidal activity is given at values of at least 85)
herbicidal activity [3]: very good (a very good herbicidal activity is given at values of at least 85)
herbicidal activity ([4]; 2000 g/ha): very good (a very good herbicidal activity is given at values of at least 85)

Clc1ccccc1-c1cnc(C2CC2)nc1-c1nc2ccccc2[nH]1 [Ex. 297]
herbicidal activity ([5]; 2000 g/ha): very good (a very good herbicidal activity is given at values of at least 85)
herbicidal activity ([6]; 2000 g/ha): very good (a very good herbicidal activity is given at values of at least 85)
herbicidal activity ([2]; 2000 g/ha): very good (a very good herbicidal activity is given at values of at least 85)
herbicidal activity ([7]; 2000 g/ha): very good (a very good herbicidal activity is given at values of at least 85)
herbicidal activity ([4]; 2000 g/ha): good (A good herbicidal activity is given at values of at least 70)
herbicidal activity [8]: good (A good herbicidal activity is given at values of at least 70)

Cc1ocnc1-c1nc(C2CC2)ncc1-c1ccccc1Cl [Ex. 267]
herbicidal activity [9]: very good (a very good herbicidal activity is given at values of at least 85)
herbicidal activity ([2]; 2000 g/ha): very good (a very good herbicidal activity is given at values of at least 85)
herbicidal activity ([10]; 2000 g/ha): very good (a very good herbicidal activity is given at values of at least 85)
herbicidal activity ([11]; 2000 g/ha): very good (a very good herbicidal activity is given at values of at least 85)
herbicidal activity ([4]; 2000 g/ha): very good (a very good herbicidal activity is given at values of at least 85)

Cc1nc(C)c(-c2nc(C3CC3)ncc2-c2cc(C(F)F)ccc2Cl)o1 [Ex. 291]
herbicidal activity ([5]; 500 g/ha): good (A good herbicidal activity is given at values of at least 70)
herbicidal activity ([6]; 500 g/ha): good (A good herbicidal activity is given at values of at least 70)
herbicidal activity ([7]; 500 g/ha): very good (a very good herbicidal activity is given at values of at least 85)
herbicidal activity ([11]; 500 g/ha): very good (a very good herbicidal activity is given at values of at least 85)
herbicidal activity ([12]; 500 g/ha): good (A good herbicidal activity is given at values of at least 70)
herbicidal activity ([4]; 500 g/ha): very good (a very good herbicidal activity is given at values of at least 85)

Brc1ccccc1-c1cnc(C2CC2)nc1C1CC1 [Ex. 39]
herbicidal activity ([13]; 2000 g/ha): very good (a very good herbicidal activity is given at values of at least 85)
herbicidal activity [9]: very good (a very good herbicidal activity is given at values of at least 85)
herbicidal activity [14]: very good (a very good herbicidal activity is given at values of at least 85)

Clc1ccccc1-c1cnc(C2CC2)nc1-c1cnco1 [Ex. 260]
herbicidal activity ([5]; 2000 g/ha): very good (a very good herbicidal activity is given at values of at least 85)
herbicidal activity [15]: very good (a very good herbicidal activity is given at values of at least 85)
herbicidal activity ([6]; 2000 g/ha): good (A good herbicidal activity is given at values of at least 70)
herbicidal activity ([2]; 2000 g/ha): good (A good herbicidal activity is given at values of at least 70)
herbicidal activity ([7]; 2000 g/ha): good (A good herbicidal activity is given at values of at least 70)
herbicidal activity ([4]; 2000 g/ha): very good (a very good herbicidal activity is given at values of at least 85)

Cc1nc(C)c(-c2nc(C3CC3)ncc2-c2ccccc2Br)o1 [Ex. 265]
herbicidal activity ([13]; 250 g/ha): very good (a very good herbicidal activity is given at values of at least 85)
herbicidal activity ([5]; 250 g/ha): good (A good herbicidal activity is given at values of at least 70)
herbicidal activity [16]: good (A good herbicidal activity is given at values of at least 70)

C=C(C(=O)OC)c1nc(C2CC2)ncc1-c1ccccc1Cl [Ex. 221]
herbicidal activity [9]: very good (a very good herbicidal activity is given at values of at least 85)
herbicidal activity ([17]; 2000 g/ha): very good (a very good herbicidal activity is given at values of at least 85)
herbicidal activity ([2]; 2000 g/ha): very good (a very good herbicidal activity is given at values of at least 85)
herbicidal activity ([7]; 2000 g/ha): very good (a very good herbicidal activity is given at values of at least 85)
herbicidal activity ([11]; 2000 g/ha): very good (a very good herbicidal activity is given at values of at least 85)
herbicidal activity ([4]; 2000 g/ha): very good (a very good herbicidal activity is given at values of at least 85)

Cc1ncc(-c2nc(C3CC3)ncc2-c2ccccc2Cl)o1 [Ex. 244]
herbicidal activity ([5]; 500 g/ha): good (A good herbicidal activity is given at values of at least 70)
herbicidal activity [18]: good (A good herbicidal activity is given at values of at least 70)
herbicidal activity ([7]; 500 g/ha): very good (a very good herbicidal activity is given at values of at least 85)
herbicidal activity ([10]; 500 g/ha): good (A good herbicidal activity is given at values of at least 70)
herbicidal activity ([11]; 500 g/ha): very good (a very good herbicidal activity is given at values of at least 85)
herbicidal activity ([4]; 500 g/ha): very good (a very good herbicidal activity is given at values of at least 85)

Clc1ccccc1-c1cnc(C2CC2)nc1-c1ccnnc1 [Ex. 234]
herbicidal activity ([7]; 2000 g/ha): very good (a very good herbicidal activity is given at values of at least 85)
herbicidal activity ([10]; 2000 g/ha): good (A good herbicidal activity is given at values of at least 70)

OCc1nc(C2CC2)ncc1-c1cc(F)ccc1Cl [Ex. 14]
herbicidal activity ([7]; 250 g/ha): very good (a very good herbicidal activity is given at values of at least 85)
herbicidal activity ([12]; 250 g/ha): good (A good herbicidal activity is given at values of at least 70)

OC(c1nc(Cl)ccc1Cl)C(O)c1nc(C2CC2)ncc1-c1ccccc1Cl (stereo not shown) [Ex. 259]
herbicidal activity ([5]; 2000 g/ha): very good (a very good herbicidal activity is given at values of at least 85)
herbicidal activity ([2]; 2000 g/ha): very good (a very good herbicidal activity is given at values of at least 85)
herbicidal activity ([7]; 2000 g/ha): good (A good herbicidal activity is given at values of at least 70)
herbicidal activity ([10]; 2000 g/ha): very good (a very good herbicidal activity is given at values of at least 85)
herbicidal activity ([4]; 2000 g/ha): good (A good herbicidal activity is given at values of at least 70)

Cc1ccc(-c2nc(C3CC3)ncc2-c2ccccc2Br)o1 [Ex. 121]
herbicidal activity ([5]; 500 g/ha): very good (a very good herbicidal activity is given at values of at least 85)
herbicidal activity ([2]; 500 g/ha): very good (a very good herbicidal activity is given at values of at least 85)
herbicidal activity [18]: very good (a very good herbicidal activity is given at values of at least 85)
herbicidal activity ([12]; 500 g/ha): very good (a very good herbicidal activity is given at values of at least 85)

OC(c1cccs1)C(O)c1nc(C2CC2)ncc1-c1ccccc1Cl (stereo not shown) [Ex. 247]
herbicidal activity ([13]; 500 g/ha): very good (a very good herbicidal activity is given at values of at least 85)
herbicidal activity ([17]; 500 g/ha): very good (a very good herbicidal activity is given at values of at least 85)
herbicidal activity ([5]; 500 g/ha): very good (a very good herbicidal activity is given at values of at least 85)
herbicidal activity ([7]; 500 g/ha): very good (a very good herbicidal activity is given at values of at least 85)
herbicidal activity ([11]; 500 g/ha): very good (a very good herbicidal activity is given at values of at least 85)
herbicidal activity ([4]; 500 g/ha): very good (a very good herbicidal activity is given at values of at least 85)
